In patent US20240182531A1, “KV1.3 Blockers” (priority 2021, published 2024):
Where a SMILES comes first, the peptide text is derived from it. Bridges are numbered along the chain shown (N, C = ends). [ ]: non-standard residue; d: D form. Nle = CCCC[C@H](N)C(=O)O

Experiments:
human Kv1.1 = target: T1, human Kv1.1 (Homo sapiens, UniProt Q09470); assay: cell-based; conditions: ratio of patch clamp IC50 values
T1 construct: expressed in transfected cells; host or cells: CHO

human Kv1.6 = target: T2, human Kv1.6 (Homo sapiens, UniProt P17658); assay: cell-based; conditions: ratio of patch clamp IC50 values
T2 construct: expressed in transfected cells; host or cells: CHO
T2 sequence (P17658 whole entry): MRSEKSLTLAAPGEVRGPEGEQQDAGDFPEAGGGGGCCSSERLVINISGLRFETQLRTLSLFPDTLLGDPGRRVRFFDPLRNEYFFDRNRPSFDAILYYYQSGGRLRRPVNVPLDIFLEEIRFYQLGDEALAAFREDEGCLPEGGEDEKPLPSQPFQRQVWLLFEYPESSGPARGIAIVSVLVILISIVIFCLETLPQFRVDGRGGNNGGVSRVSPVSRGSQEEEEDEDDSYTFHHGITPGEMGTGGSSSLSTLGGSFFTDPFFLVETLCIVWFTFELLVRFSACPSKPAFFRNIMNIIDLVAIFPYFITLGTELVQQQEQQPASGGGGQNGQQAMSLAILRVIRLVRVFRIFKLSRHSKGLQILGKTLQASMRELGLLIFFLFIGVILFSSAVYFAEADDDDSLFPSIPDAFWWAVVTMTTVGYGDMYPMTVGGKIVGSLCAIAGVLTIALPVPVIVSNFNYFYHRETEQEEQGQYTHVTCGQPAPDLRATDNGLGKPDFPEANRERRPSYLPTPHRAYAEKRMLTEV

human Kv1.2 = target: T3, human Kv1.2 (Homo sapiens, UniProt P16389); assay: cell-based; conditions: ratio of patch clamp IC50 values
T3 construct: expressed in transfected cells; host or cells: CHO
T3 sequence (P16389 whole entry): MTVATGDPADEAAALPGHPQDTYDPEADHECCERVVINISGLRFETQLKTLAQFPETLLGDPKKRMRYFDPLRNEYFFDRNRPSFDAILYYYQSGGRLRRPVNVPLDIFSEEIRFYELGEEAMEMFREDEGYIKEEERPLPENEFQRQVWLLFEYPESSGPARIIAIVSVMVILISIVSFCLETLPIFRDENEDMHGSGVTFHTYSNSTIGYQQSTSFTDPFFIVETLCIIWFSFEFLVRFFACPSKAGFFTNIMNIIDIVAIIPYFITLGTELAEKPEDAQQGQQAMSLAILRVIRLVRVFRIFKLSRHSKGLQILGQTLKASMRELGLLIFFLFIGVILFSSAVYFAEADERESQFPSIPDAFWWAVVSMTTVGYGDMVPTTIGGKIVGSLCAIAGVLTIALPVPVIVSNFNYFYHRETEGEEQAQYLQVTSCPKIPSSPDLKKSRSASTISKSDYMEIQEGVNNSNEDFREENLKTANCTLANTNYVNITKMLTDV

Rat whole blood = Rat whole blood (Rattus norvegicus, UniProt P15384); assay type: cell-based; conditions: IL-17A release, thapsigargin, 24 Hr, at least 2 replicates
Rat whole blood, sequence (P15384 whole entry): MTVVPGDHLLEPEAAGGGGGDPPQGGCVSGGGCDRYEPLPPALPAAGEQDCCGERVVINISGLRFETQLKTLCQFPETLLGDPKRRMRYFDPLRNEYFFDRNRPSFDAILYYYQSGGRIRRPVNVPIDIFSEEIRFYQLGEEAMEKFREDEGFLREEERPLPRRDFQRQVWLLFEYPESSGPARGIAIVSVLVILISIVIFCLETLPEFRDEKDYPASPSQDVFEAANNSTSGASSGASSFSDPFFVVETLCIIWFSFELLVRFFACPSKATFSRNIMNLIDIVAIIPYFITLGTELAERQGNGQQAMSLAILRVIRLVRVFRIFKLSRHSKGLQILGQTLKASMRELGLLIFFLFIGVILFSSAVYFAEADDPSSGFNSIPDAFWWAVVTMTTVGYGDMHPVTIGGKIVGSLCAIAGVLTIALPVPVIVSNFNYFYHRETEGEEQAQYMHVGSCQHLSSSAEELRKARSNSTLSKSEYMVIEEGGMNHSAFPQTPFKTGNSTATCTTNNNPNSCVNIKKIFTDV

T1 sequence (Q09470 whole entry): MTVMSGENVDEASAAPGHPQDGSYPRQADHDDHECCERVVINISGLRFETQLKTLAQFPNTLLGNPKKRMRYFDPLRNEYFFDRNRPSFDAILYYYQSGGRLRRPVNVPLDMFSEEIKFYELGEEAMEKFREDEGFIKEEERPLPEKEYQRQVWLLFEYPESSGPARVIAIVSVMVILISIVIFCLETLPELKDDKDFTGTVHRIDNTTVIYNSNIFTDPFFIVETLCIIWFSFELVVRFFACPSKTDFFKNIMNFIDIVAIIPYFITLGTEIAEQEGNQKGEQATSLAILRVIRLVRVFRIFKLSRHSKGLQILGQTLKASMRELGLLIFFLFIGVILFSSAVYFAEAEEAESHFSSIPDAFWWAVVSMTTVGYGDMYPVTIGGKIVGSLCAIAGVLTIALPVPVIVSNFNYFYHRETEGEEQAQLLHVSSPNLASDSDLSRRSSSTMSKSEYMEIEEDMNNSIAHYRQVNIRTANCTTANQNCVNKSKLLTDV

## CC[C@H](C)[C@@H]1NC(=O)[C@H](C)NC(=O)[C@H](CCCCN)NC(=O)[C@H](CC(C)C)NC(=O)[C@@H]2CSSC[C@@H](C(=O)N[C@@H](Cc3ccc(O)cc3)C(=O)N3CCC[C@H]3C(=O)N[C@@H](CCCNC(=N)N)C(N)=O)NC(=O)[C@H](CCCCN)NC(=O)[C@@H]3CSSC[C@H](NC(=O)[C@H](CCC(=O)O)NC(=O)[C@H](C(C)C)NC(=O)[C@H](CO)NC(=O)[C@H](C)NC(=O)[C@H](CO)NC(=O)[C@@H](NC(=O)[C@H](CCCNC(=N)N)NC(=O)[C@H](CCSC)NC(=O)[C@H](CC(=O)O)NC(=O)[C@H](CCSC)NC(=O)[C@@H](N)CC(N)=O)CSSC[C@H](NC(=O)[C@H](CCCCN)NC(=O)CNC(=O)[C@H](Cc4ccccc4)NC(=O)[C@H](CCCCN)NC(=O)[C@H](CO)NC(=O)CNC1=O)C(=O)N[C@@H](CCSC)C(=O)N[C@@H](CC(N)=O)C(=O)N[C@@H](CCCCN)C(=O)N[C@@H](CCCCN)C(=O)N3)C(=O)N[C@@H](CCCCN)C(=O)N[C@@H](CCC(N)=O)C(=O)N[C@@H](CCCCN)C(=O)N2 [compound 38] (H-NMDMRCSASVECKQKCLKAIGSKFGKCMNKKCKCYPR-NH2; disulfide 6-27, 12-32, 16-34)
Human Kv1.1
  Selectivity ratio Kv1.1/Kv1.3: >7100
Human Kv1.6
  Selectivity ratio Kv1.6/Kv1.3: 490
Human Kv1.2
  Selectivity ratio Kv1.2/Kv1.3: 237
Rat whole blood
  IC50: 2.1 nM

## CC[C@H](C)[C@@H]1NC(=O)[C@H](C)NC(=O)[C@H](CCCCN)NC(=O)[C@H](CC(C)C)NC(=O)[C@@H]2CSSC[C@@H](C(=O)N[C@@H](Cc3ccc(O)cc3)C(=O)N3CCC[C@H]3C(=O)N[C@@H](CCCNC(=N)N)C(N)=O)NC(=O)[C@H](CCCCN)NC(=O)[C@@H]3CSSC[C@H](NC(=O)[C@H](CCC(=O)O)NC(=O)[C@H](C(C)C)NC(=O)[C@H](CO)NC(=O)[C@H](C)NC(=O)[C@H](CO)NC(=O)[C@@H](NC(=O)[C@H](CCCNC(=N)N)NC(=O)[C@H](CCSC)NC(=O)[C@H](CC(=O)O)NC(=O)[C@H](CCSC)NC(=O)[C@@H](N)CC(N)=O)CSSC[C@H](NC(=O)[C@H](CCCCN)NC(=O)CNC(=O)[C@H](Cc4ccccc4)NC(=O)[C@H]([C@@H](C)CC)NC(=O)[C@H](CO)NC(=O)CNC1=O)C(=O)N[C@@H](CCSC)C(=O)N[C@@H](CC(N)=O)C(=O)NCC(=O)N[C@@H](CCCCN)C(=O)N3)C(=O)N[C@@H](CCCCN)C(=O)N[C@@H](CCC(N)=O)C(=O)N[C@@H](CCCCN)C(=O)N2 [compound 40] (H-NMDMRCSASVECKQKCLKAIGSIFGKCMNGKCKCYPR-NH2; disulfide 6-27, 12-32, 16-34)
Human Kv1.1
  Selectivity ratio Kv1.1/Kv1.3: >9700
Human Kv1.6
  Selectivity ratio Kv1.6/Kv1.3: >9700
Human Kv1.2
  Selectivity ratio Kv1.2/Kv1.3: 1422
Rat whole blood
  IC50: 1.2 nM

## CC[C@H](C)[C@@H]1NC(=O)[C@H](C)NC(=O)[C@H](CCCCN)NC(=O)[C@H](CC(C)C)NC(=O)[C@@H]2CSSC[C@@H](C(=O)N[C@@H](Cc3ccc(O)cc3)C(=O)N3CCC[C@H]3C(=O)N[C@@H](CCCNC(=N)N)C(N)=O)NC(=O)[C@H](Cc3c[nH]cn3)NC(=O)[C@@H]3CSSC[C@H](NC(=O)[C@H](CCC(=O)O)NC(=O)[C@H](C(C)C)NC(=O)[C@H](CO)NC(=O)[C@H](C)NC(=O)[C@H](CO)NC(=O)[C@@H](NC(=O)[C@H](CCCNC(=N)N)NC(=O)[C@H](CCSC)NC(=O)[C@H](CC(=O)O)NC(=O)[C@H](CCSC)NC(=O)[C@@H](N)CC(N)=O)CSSC[C@H](NC(=O)[C@H](CCCCN)NC(=O)CNC(=O)[C@H](Cc4ccccc4)NC(=O)[C@H]([C@@H](C)CC)NC(=O)[C@H](CO)NC(=O)CNC1=O)C(=O)N[C@@H](CCSC)C(=O)N[C@@H](CC(N)=O)C(=O)N[C@@H](CCCCN)C(=O)N[C@@H](CCCCN)C(=O)N3)C(=O)N[C@@H](CCCCN)C(=O)N[C@@H](CCC(N)=O)C(=O)N[C@@H](CCCCN)C(=O)N2 [compound 41] (H-NMDMRCSASVECKQKCLKAIGSIFGKCMNKKCHCYPR-NH2; disulfide 6-27, 12-32, 16-34)
Human Kv1.1
  Selectivity ratio Kv1.1/Kv1.3: >16100
Human Kv1.6
  Selectivity ratio Kv1.6/Kv1.3: >16100
Human Kv1.2
  Selectivity ratio Kv1.2/Kv1.3: 1816
Rat whole blood
  IC50: 0.77 nM

## CCCC[C@@H]1NC(=O)[C@@H]2CSSC[C@H](NC(=O)[C@H](CCCNC(=N)N)NC(=O)[C@H](CCCC)NC(=O)[C@H](CC(=O)O)NC(=O)[C@H](CCCC)NC(=O)[C@@H](N)CC(N)=O)C(=O)N[C@@H](CCCNC(=N)N)C(=O)N[C@@H](C)C(=O)N[C@@H](CO)C(=O)N[C@@H](C(C)C)C(=O)N[C@@H](CCC(=O)O)C(=O)N[C@H]3CSSC[C@H](NC(=O)[C@H](CCCCN)NC(=O)[C@H](CCCCN)NC(=O)[C@H](CC(N)=O)NC1=O)C(=O)N[C@@H](CCCCN)C(=O)N[C@H](C(=O)N[C@@H](Cc1ccc(O)cc1)C(=O)N1CCC[C@H]1C(=O)N[C@@H](CCCNC(=N)N)C(N)=O)CSSC[C@H](NC(=O)[C@H](CCCCN)NC(=O)[C@H](CCC(N)=O)NC(=O)[C@H](CCCCN)NC3=O)C(=O)N[C@@H](CC(C)C)C(=O)N[C@@H](CCCCN)C(=O)N[C@@H](C)C(=O)N[C@@H]([C@@H](C)CC)C(=O)NCC(=O)N[C@@H](CO)C(=O)N[C@@H]([C@@H](C)CC)C(=O)N[C@@H](Cc1ccccc1)C(=O)NCC(=O)N[C@@H](CCCCN)C(=O)N2 [compound 46] (H-N[Nle]D[Nle]RCRASVECKQKCLKAIGSIFGKC[Nle]NKKCKCYPR-NH2; disulfide 6-27, 12-32, 16-34)
Human Kv1.1
  Selectivity ratio Kv1.1/Kv1.3: >18600
Human Kv1.6
  Selectivity ratio Kv1.6/Kv1.3: 1954
Human Kv1.2
  Selectivity ratio Kv1.2/Kv1.3: 674
Rat whole blood
  IC50: 0.91 nM

## CCCC[C@@H]1NC(=O)[C@@H]2CSSC[C@H](NC(=O)[C@H](CCCNC(=N)N)NC(=O)[C@H](CCCC)NC(=O)[C@H](CC(=O)O)NC(=O)[C@H](CCCC)NC(=O)[C@@H](N)CC(N)=O)C(=O)N[C@@H](CO)C(=O)N[C@@H](C)C(=O)N[C@@H](CO)C(=O)N[C@@H](C(C)C)C(=O)N[C@@H](CCC(=O)O)C(=O)N[C@H]3CSSC[C@H](NC(=O)[C@H](CCCCN)NC(=O)[C@H](CCCCN)NC(=O)[C@H](CC(N)=O)NC1=O)C(=O)N[C@@H](CCCCN)C(=O)N[C@H](C(=O)N[C@@H](Cc1ccc(O)cc1)C(=O)N1CCC[C@H]1C(=O)N[C@@H](CCCNC(=N)N)C(N)=O)CSSC[C@H](NC(=O)[C@H](CCCCN)NC(=O)[C@H](CCCCN)NC(=O)[C@H](CCCCN)NC3=O)C(=O)N[C@@H](CC(C)C)C(=O)N[C@@H](CCCCN)C(=O)N[C@@H](C)C(=O)N[C@@H]([C@@H](C)CC)C(=O)NCC(=O)N[C@@H](CO)C(=O)N[C@@H]([C@@H](C)CC)C(=O)N[C@@H](Cc1ccccc1)C(=O)NCC(=O)N[C@@H](CCCCN)C(=O)N2 [compound 49] (H-N[Nle]D[Nle]RCSASVECKKKCLKAIGSIFGKC[Nle]NKKCKCYPR-NH2; disulfide 6-27, 12-32, 16-34)
Human Kv1.1
  Selectivity ratio Kv1.1/Kv1.3: >4000
Human Kv1.6
  Selectivity ratio Kv1.6/Kv1.3: >4000
Human Kv1.2
  Selectivity ratio Kv1.2/Kv1.3: 343
Rat whole blood
  IC50: 1.4 nM

## CCCC[C@@H]1NC(=O)[C@@H]2CSSC[C@H](NC(=O)[C@H](CCCNC(=N)N)NC(=O)[C@H](CCCC)NC(=O)[C@H](CO)NC(=O)[C@H](CCCC)NC(=O)[C@@H](N)CC(N)=O)C(=O)N[C@@H](CO)C(=O)N[C@@H](C)C(=O)N[C@@H](CO)C(=O)N[C@@H](C(C)C)C(=O)N[C@@H](CCC(=O)O)C(=O)N[C@H]3CSSC[C@H](NC(=O)[C@H](CCCCN)NC(=O)[C@H](CCCCN)NC(=O)[C@H](CC(N)=O)NC1=O)C(=O)N[C@@H](CCCCN)C(=O)N[C@H](C(=O)N[C@@H](Cc1ccc(O)cc1)C(=O)N1CCC[C@H]1C(=O)N[C@@H](CCCNC(=N)N)C(N)=O)CSSC[C@H](NC(=O)[C@H](CCCCN)NC(=O)[C@H](CCC(N)=O)NC(=O)[C@H](CCCCN)NC3=O)C(=O)N[C@@H](CC(C)C)C(=O)N[C@@H](CCCCN)C(=O)N[C@@H](C)C(=O)N[C@@H]([C@@H](C)CC)C(=O)NCC(=O)N[C@@H](CO)C(=O)N[C@@H]([C@@H](C)CC)C(=O)N[C@@H](Cc1ccccc1)C(=O)NCC(=O)N[C@@H](CCCCN)C(=O)N2 [compound 50] (H-N[Nle]S[Nle]RCSASVECKQKCLKAIGSIFGKC[Nle]NKKCKCYPR-NH2; disulfide 6-27, 12-32, 16-34)
Human Kv1.1
  Selectivity ratio Kv1.1/Kv1.3: >9400
Human Kv1.6
  Selectivity ratio Kv1.6/Kv1.3: 4359
Human Kv1.2
  Selectivity ratio Kv1.2/Kv1.3: 943
Rat whole blood
  IC50: 0.79 nM

## CCCC[C@@H]1NC(=O)[C@@H]2CSSC[C@H](NC(=O)[C@H](CCCNC(=N)N)NC(=O)[C@H](CCCC)NC(=O)[C@H](CC(=O)O)NC(=O)[C@H](CCCC)NC(=O)[C@@H](N)CC(N)=O)C(=O)N[C@@H](CO)C(=O)N[C@@H](Cc3c[nH]cn3)C(=O)N[C@@H](CO)C(=O)N[C@@H](C(C)C)C(=O)N[C@@H](CCC(=O)O)C(=O)N[C@H]3CSSC[C@H](NC(=O)[C@H](CCCCN)NC(=O)[C@H](CCCCN)NC(=O)[C@H](CC(N)=O)NC1=O)C(=O)N[C@@H](CCCCN)C(=O)N[C@H](C(=O)N[C@@H](Cc1ccc(O)cc1)C(=O)N1CCC[C@H]1C(=O)N[C@@H](CCCNC(=N)N)C(N)=O)CSSC[C@H](NC(=O)[C@H](CCCCN)NC(=O)[C@H](CCC(N)=O)NC(=O)[C@H](CCCCN)NC3=O)C(=O)N[C@@H](CC(C)C)C(=O)N[C@@H](CCCCN)C(=O)N[C@@H](C)C(=O)N[C@@H]([C@@H](C)CC)C(=O)NCC(=O)N[C@@H](CO)C(=O)N[C@@H]([C@@H](C)CC)C(=O)N[C@@H](Cc1ccccc1)C(=O)NCC(=O)N[C@@H](CCCCN)C(=O)N2 [compound 51] (H-N[Nle]D[Nle]RCSHSVECKQKCLKAIGSIFGKC[Nle]NKKCKCYPR-NH2; disulfide 6-27, 12-32, 16-34)
Human Kv1.1
  Selectivity ratio Kv1.1/Kv1.3: >5600
Human Kv1.6
  Selectivity ratio Kv1.6/Kv1.3: 1134
Human Kv1.2
  Selectivity ratio Kv1.2/Kv1.3: 1438
Rat whole blood
  IC50: 0.83 nM
